Literature values, collected in patent publication US20130122119A1, “PHYLLANTHUS AMARUS COMPOSITIONS AND METHOD OF EXTRACTING SAME” (NATREON, INC., priority 2011, published 2013).

What was measured:
TNF-α release = details: read-out: IC50 of TNF-α release inhibition
[1] = system: hepatitis B e-antigen (HBeAg) secretion; details: non-cytotoxic concentration of 200 μg/ml
mouse skin tumors = details: week 20, treatment prior to okadaic acid
[2] = geraniin isolated from Phyllanthus sellowianus
[3] = system: hepatitis B surface antigen (HBsAg) secretion; details: non-cytotoxic concentration of 200 μg/ml

Row | Compound | IC50 (TNF-α release) [µM] | inhibition of HBeAg secretion [1] [%] | average numbers of tumor per mouse (mouse skin tumors; 3.8 without treatment) | percentage of tumor-bearing mice (mouse skin tumors; 80.0% without treatment) [%] | analgesic potency at the ID50 level (micromol/kg) relative to aspirin and acetaminophen [2] | inhibition of HBsAg secretion [3]
1 | (−)-epigallocatechin gallate | 26 |  |  |  |  | 
2 | O=C1OC2C3COC(=O)c4cc(O)c(O)c(O)c4-c4c(cc(O)c(O)c4O)C(=O)OC2C(OC(=O)c2cc(O)c(O)c4c2C2C1=CC(=O)C(O)(O4)C2(O)O)C(OC(=O)c1cc(O)c(O)c(O)c1)O3 [Geraniin, beta-D-Glucopyranose, cyclic 2-7:4-5-(3,6-dihydro-2,9,10,11,11-pentahydroxy-3-oxo-2,6-methano-2H-1-benzoxocin-5,7-dicarboxylate) cyclic 3,6-(4,4′,5,5′,6,6′-hexahydroxy(1,1′-biphenyl)-2,2′-dicarboxylate) 1-(3,4,5-trihydroxybenzoate)] | 43 | > 63.7 | 1.1 | 40.0 | about six- to seven-fold more potent | more than 85.8%
3 | O=C(O[C@@H]1O[C@@H]2COC(=O)c3cc(O)c(O)c(O)c3-c3c(cc(O)c(O)c3O)C(=O)O[C@H]([C@H]1O)[C@@H]2O)c1cc(O)c(O)c(O)c1 [Corilagin, beta-1-O-galloyl-3,6-(R)-hexahydroxydiphenoyl-D-glucose] | 76 |  |  |  |  | 
